According to paper PMC8402619 (Viruses, 2021):

Key:
Assay type in all cases: in vitro ADME
[1] = Plasma protein binding by equilibrium dialysis, rat plasma; conditions: pH 7.4
[2] = Metabolism in cryopreserved human hepatocyte incubations
CYP2C8 = biological target: T1, CYP2C8 (Homo sapiens, UniProt P10632); experiment: Reversible CYP inhibition in pooled human liver microsomes
T1 sequence (P10632 1-490): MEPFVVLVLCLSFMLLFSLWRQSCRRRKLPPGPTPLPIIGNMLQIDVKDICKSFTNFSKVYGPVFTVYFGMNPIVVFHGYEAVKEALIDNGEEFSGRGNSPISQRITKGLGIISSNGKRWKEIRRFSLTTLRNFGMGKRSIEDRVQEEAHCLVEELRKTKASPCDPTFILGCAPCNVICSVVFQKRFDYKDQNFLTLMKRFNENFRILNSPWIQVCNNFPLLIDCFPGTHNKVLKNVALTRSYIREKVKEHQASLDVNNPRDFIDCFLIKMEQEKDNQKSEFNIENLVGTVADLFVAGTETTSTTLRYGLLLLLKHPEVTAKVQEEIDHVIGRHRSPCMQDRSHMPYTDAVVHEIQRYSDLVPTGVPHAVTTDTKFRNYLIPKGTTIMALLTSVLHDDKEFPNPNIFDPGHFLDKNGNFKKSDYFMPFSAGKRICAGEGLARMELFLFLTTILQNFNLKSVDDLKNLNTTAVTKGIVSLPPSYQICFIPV

CYP2D6 = CYP2D6 (Homo sapiens, UniProt P10635); experiment: as above
Sequence of CYP2D6 (P10635 whole entry): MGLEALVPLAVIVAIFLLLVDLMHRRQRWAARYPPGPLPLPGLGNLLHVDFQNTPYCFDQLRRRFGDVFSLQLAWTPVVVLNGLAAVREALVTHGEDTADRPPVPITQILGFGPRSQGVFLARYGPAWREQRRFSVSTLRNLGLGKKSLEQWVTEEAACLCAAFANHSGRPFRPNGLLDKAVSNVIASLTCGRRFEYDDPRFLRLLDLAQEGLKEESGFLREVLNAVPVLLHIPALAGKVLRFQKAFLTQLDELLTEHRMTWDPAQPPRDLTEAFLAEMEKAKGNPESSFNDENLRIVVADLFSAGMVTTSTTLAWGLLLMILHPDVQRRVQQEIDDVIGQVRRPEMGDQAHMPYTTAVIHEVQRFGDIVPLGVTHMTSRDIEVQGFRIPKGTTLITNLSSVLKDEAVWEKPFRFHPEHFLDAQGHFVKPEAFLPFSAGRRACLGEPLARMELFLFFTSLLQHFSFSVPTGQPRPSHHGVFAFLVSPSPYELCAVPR

CYP3A4 = CYP3A4 (Homo sapiens, UniProt P08684); experiment: as above
Sequence of CYP3A4 (P08684 whole entry): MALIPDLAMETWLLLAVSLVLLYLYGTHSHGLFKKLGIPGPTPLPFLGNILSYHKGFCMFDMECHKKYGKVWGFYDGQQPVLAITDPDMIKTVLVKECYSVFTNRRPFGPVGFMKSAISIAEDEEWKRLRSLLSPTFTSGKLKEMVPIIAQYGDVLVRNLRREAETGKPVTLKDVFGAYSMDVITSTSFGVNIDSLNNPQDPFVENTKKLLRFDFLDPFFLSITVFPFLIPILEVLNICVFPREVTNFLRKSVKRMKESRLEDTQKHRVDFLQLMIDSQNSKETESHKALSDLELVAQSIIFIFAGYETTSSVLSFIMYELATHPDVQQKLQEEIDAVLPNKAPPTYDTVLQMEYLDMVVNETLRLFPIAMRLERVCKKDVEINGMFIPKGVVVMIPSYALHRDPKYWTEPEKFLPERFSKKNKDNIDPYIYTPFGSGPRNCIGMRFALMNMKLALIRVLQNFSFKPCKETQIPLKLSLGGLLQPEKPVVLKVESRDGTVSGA

OATP1B3 = biological target: T2, OATP1B3 (Homo sapiens, UniProt Q9NPD5); experiment: Inhibition of transporter-mediated probe uptake in HEK293-OATP1B3 cells
T2 construct: host or cells: HEK293
T2 sequence (Q9NPD5 1-702): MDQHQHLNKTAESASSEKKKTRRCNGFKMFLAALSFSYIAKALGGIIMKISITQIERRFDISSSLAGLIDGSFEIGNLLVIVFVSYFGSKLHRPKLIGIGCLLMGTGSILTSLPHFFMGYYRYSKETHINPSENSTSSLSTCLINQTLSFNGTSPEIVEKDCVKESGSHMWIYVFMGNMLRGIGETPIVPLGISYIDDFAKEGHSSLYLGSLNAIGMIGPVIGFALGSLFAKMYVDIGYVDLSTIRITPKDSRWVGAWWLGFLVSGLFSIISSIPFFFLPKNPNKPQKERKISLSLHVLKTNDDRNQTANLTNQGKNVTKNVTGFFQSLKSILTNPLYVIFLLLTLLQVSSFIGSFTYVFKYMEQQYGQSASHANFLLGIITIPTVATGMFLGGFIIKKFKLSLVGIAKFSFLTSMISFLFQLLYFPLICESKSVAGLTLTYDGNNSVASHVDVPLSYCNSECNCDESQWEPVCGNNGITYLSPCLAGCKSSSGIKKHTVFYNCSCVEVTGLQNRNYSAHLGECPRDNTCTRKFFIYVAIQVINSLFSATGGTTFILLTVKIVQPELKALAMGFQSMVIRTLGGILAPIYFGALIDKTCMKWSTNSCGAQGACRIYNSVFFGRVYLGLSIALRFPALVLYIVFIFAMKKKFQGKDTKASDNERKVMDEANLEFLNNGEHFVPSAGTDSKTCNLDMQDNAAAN

OAT1 = biological target: T3, OAT1 (Homo sapiens, UniProt Q4U2R8); experiment: Inhibition of transporter-mediated probe uptake in MDCKII-OAT1 cells
T3 construct: expressed in transfected cells; host or cells: MDCKII
T3 sequence (Q4U2R8 1-563): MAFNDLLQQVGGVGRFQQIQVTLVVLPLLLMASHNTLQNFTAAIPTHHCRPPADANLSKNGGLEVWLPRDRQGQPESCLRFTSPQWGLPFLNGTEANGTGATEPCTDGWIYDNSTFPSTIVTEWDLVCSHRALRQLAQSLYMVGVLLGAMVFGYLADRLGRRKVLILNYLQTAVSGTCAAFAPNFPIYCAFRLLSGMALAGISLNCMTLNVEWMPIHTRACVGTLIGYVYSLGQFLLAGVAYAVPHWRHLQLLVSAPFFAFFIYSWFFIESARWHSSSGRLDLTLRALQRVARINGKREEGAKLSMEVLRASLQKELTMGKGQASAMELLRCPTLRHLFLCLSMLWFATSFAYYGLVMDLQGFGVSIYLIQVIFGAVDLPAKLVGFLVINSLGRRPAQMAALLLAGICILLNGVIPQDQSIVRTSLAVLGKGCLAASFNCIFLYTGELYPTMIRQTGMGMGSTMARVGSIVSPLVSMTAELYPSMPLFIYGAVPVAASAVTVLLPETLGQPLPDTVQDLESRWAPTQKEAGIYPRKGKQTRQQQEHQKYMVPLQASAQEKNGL

OAT3 = biological target: T4, OAT3 (Homo sapiens, UniProt Q8TCC7); experiment: Islatravir uptake as substrate, MDCKII vs MDCKII-OAT3 cells
T4 construct: expressed in transfected cells; host or cells: MDCKII
T4 sequence (Q8TCC7 1-542): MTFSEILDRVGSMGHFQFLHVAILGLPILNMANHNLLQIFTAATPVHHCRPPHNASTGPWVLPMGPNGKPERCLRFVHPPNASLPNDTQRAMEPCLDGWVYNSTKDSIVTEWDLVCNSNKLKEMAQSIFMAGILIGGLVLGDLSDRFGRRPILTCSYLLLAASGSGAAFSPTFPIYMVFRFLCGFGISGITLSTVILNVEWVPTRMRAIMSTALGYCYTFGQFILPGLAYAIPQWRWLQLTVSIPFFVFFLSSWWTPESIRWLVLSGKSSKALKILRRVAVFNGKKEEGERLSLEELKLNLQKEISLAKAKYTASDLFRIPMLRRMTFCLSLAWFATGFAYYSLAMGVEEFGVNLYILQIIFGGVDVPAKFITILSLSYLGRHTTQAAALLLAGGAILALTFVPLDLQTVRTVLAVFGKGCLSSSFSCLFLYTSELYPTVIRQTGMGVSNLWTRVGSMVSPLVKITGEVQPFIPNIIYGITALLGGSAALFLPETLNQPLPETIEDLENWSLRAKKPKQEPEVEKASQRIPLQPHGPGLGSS

C#C[C@]1(CO)O[C@@H](n2cnc3c(N)nc(F)nc32)C[C@@H]1O [Islatravir, 4′-Ethynyl-2-fluoro-2′-deoxyadenosine]
fraction unbound at 24 h, 0.1 µM [1]: > 0.84 | metabolites observed [2]: no detectable metabolites | DDI Potential (CYP2C8; CYP2C8 reversible inhibition, FDA, EMA, PMDA guidance): Low risk | Maximum Unbound Plasma Concentration (Imax,u) to Ki,u Ratio (CYP2C8; CYP2C8 reversible, 60 mg, Cmax 1.01 µM, fu,p 0.96, Ki,u = IC50/2): <0.019 µM | IC50 (CYP2C8; reversible, CYP2C8 amodiaquine N-deethylation, read-out: Islatravir IC50): > 100 µM | DDI Potential (CYP2D6; CYP2D6 reversible inhibition, FDA, EMA, PMDA guidance): Low risk | Maximum Unbound Plasma Concentration (Imax,u) to Ki,u Ratio (CYP2D6; CYP2D6 reversible, 60 mg, Cmax 1.01 µM, fu,p 0.96, Ki,u = IC50/2): <0.019 µM | IC50 (CYP2D6; reversible, CYP2D6 dextromethorphan O-demethylation, read-out: Islatravir IC50): > 100 µM | DDI Potential (CYP3A4; CYP3A4 reversible inhibition, FDA, EMA, PMDA guidance): Low risk | Maximum Unbound Plasma Concentration (Imax,u) to Ki,u Ratio (CYP3A4; CYP3A4 reversible, 60 mg, Cmax 1.01 µM, fu,p 0.96, Ki,u = IC50/2): <0.010 µM | Intestinal Concentration (Igut) to Ki,u Ratio (CYP3A4; CYP3A4 reversible, Igut = 60 mg/250 mL = 818 µM): <8.2 µM | IC50 (OATP1B3; OATP1B3-mediated uptake of sulfobromophthalein, read-out: Islatravir IC50): > 300 µM | Maximum Unbound Inlet Concentration (Iin,max,u) to IC50 Ratio (OATP1B3; OATP1B3, 60 mg dose): <0.035 | DDI Potential (OATP1B3; OATP1B3 inhibition, FDA, EMA, PMDA guidance): Low risk | IC50 (OAT1; OAT1-mediated cidofovir uptake, read-out: Islatravir IC50): > 100 µM | Maximum Unbound Plasma Concentration (Imax,u) to IC50 Ratio (OAT1; OAT1, 60 mg, Cmax 1.01 µM, fu,p 0.96): <0.010 µM | DDI Potential (OAT1; OAT1 inhibition, FDA, EMA, PMDA guidance): Low risk | Islatravir Uptake Transporter-Expressing Cells (OAT3; MDCKII-OAT3, 1 µM [3H]islatravir, 5 min, mean ± SD, n = 3): 0.85 ± 0.06 pmole/10^6 Cells | Fold-Difference (OAT3; OAT3, uptake into transporter-expressing cells to control cells, 5 min): 1.23 | Islatravir Uptake Control Cells (OAT3; OAT3 row, MDCKII control cells, 1 µM [3H]islatravir, 5 min, mean ± SD, n = 3): 0.69 ± 0.07 pmole/10^6 Cells | Conclusions (OAT3; OAT3 substrate assessment): Non-substrate
